Legend:
[1] = Serum stability; format: in vitro ADME; settings: mouse, in vitro, time points 0 to 48 h
Description: In two separate Eppendorf, 4 μL of compound 28 and 38 (1 mM solution in DMSO) and 36 μL of serum for each time point were mixed. After each specific time point, 40 μL of mixture were freezed in liquid nitrogen and then stored at −20° C. Once all the samples were collected, samples were defrosted at 24° C. and 300 μL of ACN were added. The samples were then centrifuged at 10′000 RPM for 5 minutes. 200 μL of the supernatant were transferred to a second Eppendorf tube and dried under vacuum for 2 h. The residue was carefully resuspended in 30 μL of mQ Water:acetonitrile=9:1 mixture (with 0.1% v/v of formic acid) and analysed by LC-MS. Each time point was performed in triplicate. The percentage of intact […] was determined extracting the area of the UV peak. The obtained values were normalized on the average area at time point corresponding to 0 hours.

[2] = biological target: human FAP (Homo sapiens (Human), UniProt Q12884); test: Inhibition assay of FAP (fluorogenic substrate Z-Gly-Pro-AMC); format: biochemical; settings: substrate Z-Gly-Pro-AMC 20 μM; FAP concentration lower than expected IC50 (66 pM in FIG. 3, 4); room temperature; read-out: IC50 vs human FAP
Description: (§1) Inhibition assay of FAP. The compounds were precisely weighed (range between […]) on a micro-scale (HuberLab, Sartorius QUINTIX35-1S) and dissolved in DMSO to prepare stock solutions at 1 mM. Stock solutions were further diluted with FAP activation buffer (50 mM Tris, 100 mM NaCl, 1 mM EDTA, pH=7.4) to a final DMSO concentration of 10% v/v. 10 μL of each inhibitor were serially diluted in a 384 well plate (grenier-bio one, PS, F-bottom, Black, non-binding) with 10 μL of 10% DMSO FAP buffer (1:1 dilution). FAP (human and murine) was diluted to the desired concentration with FAP activation buffer and added to the serial dilution of inhibitor (10 μL for each well). Each protein-inhibitor solution was incubated for 30 minutes at room temperature. Each measurement was performed with an enzyme concentration (FAP) lower than the expected IC50. A 60 μM solution of substrate (Z-Gly-Pro-AMC) in FAP activation buffer (<1% DMSO) was added to the plate (10 μL for each well). The reaction was incubated from 1 minute to 48 hours (see FIG. 2) at room temperature (22° C.-25° C.). The emission was read at 465 nm (excitation wavelength 360 nm) for 40 μs by Tecan Spark (s.n. 1808004082). The following controls were added to each row: positive control (no inhibitor control, 10 μL of 10% DMSO FAP buffer+10 μL of FAP solution+10 μL of substrate solution), negative control (no protein control, 10 μL of 10% DMSO FAP buffer+10 μL of FAP activation buffer+10 μL of substrate solution).
(§2) Normalization of values: The “% of FAP activity” can be calculated with the following formula:
The concentration of substrate (Z-Gly-Pro-AMC) was kept constant=20 μM. Dashed lines corresponds to sets of data with unstable fitting. […] Error bars display SEM.
(§3) FIG. 3: Inhibition assay performed with compounds 1, 2, 3, 4, 5, 6, 8 against a) 66 pM human FAP and b) 66 pM murine FAP. The concentration of substrate (Z-Gly-Pro-AMC) was kept constant=20 μM. The assay was incubated for 48 hours at 22.6° C. Error bars display SEM.
(§4) FIG. 4: a) Inhibition assay performed with compounds 8, 9 and 10 against 66 pM human FAP. The assay was incubated for 17 hours at 25° C. b) Inhibition assay performed with compound 9 against 66 pM murine FAP. The assay was incubated for 17 hours at 25° C. In both assays the concentration of substrate (Z-Gly-Pro-AMC) was kept constant=20 μM. Error bars display SEM.
FIG. 19. A: Chemical structures and corresponding IC50(hFAP) values of compounds according to the present invention. B: Chemical structures and corresponding IC50 values of compounds where the propargyl moiety at position AA^2 was replaced by different groups (Me, iPr, Bn) using both R and S stereoisomers. The sites of modification have been highlighted with arrows. Each measurement was performed with a FAP concentration lower than the expected IC50. Depending on FAP concentration, the fluorescence was measured between 10 minutes and 48 h (at room temperature) after the addition of the fluorogenic substrate (Z-Gly-Pro-AMC). IC50 values and standard errors were calculated using “[Inhibitor] vs. response—Variable slope (four parameters)” fitting (Graphpad Prism). […] By introducing the quinoline-based moiety, a single-digit nanomolar inhibitor was obtained. […] The replacement of propargylglycine with S-phenylalanine improved potency of the lead compound of additional ˜2-folds (compound 14).

[3] = biological target: murine FAP (Mus musculus (Mouse), UniProt P97321); test: as above; format: biochemical; settings: substrate Z-Gly-Pro-AMC 20 μM; 66 pM murine FAP; room temperature
Description: as §1, §2, §3, §4

Chain of murine FAP (P97321 whole entry): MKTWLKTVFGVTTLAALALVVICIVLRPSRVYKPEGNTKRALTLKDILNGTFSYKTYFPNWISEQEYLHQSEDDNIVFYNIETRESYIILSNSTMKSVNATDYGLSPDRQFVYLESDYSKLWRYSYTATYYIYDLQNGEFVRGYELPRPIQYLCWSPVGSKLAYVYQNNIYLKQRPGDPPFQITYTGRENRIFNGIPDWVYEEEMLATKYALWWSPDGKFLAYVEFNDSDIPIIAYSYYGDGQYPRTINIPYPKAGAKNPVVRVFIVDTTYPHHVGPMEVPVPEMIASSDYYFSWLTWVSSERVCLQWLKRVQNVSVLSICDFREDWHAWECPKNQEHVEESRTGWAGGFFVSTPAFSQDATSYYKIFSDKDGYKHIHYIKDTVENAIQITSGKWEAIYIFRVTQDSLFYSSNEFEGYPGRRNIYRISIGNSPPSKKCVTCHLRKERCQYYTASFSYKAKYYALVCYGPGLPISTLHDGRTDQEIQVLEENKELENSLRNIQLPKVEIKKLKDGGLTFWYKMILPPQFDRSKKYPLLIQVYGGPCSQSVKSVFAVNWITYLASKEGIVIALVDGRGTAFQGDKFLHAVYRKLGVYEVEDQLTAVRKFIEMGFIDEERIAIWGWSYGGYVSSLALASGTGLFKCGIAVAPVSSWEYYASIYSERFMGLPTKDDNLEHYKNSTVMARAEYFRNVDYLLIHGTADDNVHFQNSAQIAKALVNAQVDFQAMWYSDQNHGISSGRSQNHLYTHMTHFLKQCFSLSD
Chain of human FAP (Q12884 whole entry): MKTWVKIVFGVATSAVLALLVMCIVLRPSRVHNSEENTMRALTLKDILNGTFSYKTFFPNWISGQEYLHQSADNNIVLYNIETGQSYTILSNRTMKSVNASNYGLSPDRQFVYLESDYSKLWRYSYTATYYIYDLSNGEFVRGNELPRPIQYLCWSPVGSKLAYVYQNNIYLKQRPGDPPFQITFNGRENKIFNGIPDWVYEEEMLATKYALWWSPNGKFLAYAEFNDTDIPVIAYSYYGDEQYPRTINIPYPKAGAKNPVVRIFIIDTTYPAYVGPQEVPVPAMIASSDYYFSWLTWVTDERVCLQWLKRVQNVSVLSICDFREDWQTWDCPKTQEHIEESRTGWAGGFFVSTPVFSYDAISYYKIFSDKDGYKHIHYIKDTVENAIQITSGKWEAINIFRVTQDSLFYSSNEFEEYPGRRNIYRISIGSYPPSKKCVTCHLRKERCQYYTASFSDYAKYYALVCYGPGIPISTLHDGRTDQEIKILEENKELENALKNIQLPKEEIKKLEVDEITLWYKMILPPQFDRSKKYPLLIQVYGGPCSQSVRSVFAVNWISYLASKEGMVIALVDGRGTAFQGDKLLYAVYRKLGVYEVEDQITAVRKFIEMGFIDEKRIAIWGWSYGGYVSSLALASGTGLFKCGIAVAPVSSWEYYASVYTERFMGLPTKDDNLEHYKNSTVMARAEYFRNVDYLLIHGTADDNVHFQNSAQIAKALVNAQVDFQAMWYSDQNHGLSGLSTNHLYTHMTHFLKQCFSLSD

IC50 [2]: 0.03 nM
IC50 [3]: 0.00479 nM
SMILES: CN(C)C(=N)NCCCC(NC(=O)CCC(=O)Nc1cccc2c(C(=O)NCC(=O)N3CC(F)(F)C[C@H]3C#N)ccnc12)C(=O)N[C@@H](Cc1ccccc1)C(=O)NCCNC(=O)CCC(C(=O)O)N1CCN(CC(=O)O)CCN(CC(=O)O)CCN(CC(=O)O)CC1 (stereo in doubt) [Compound 28]
half-life at 100 µM [1]: > 48 h
